# Experimental data from US6482609B1, “Isolated human EDG-4 receptor and polynucletide encoding said receptor” (priority 1997, dated 2002).
# Columns and labels:
# [1] = system: Human Umbilical Vein Endothelial Cells (HUVEC); test: IL-8 ELISA on primary cultured HUVEC treated with lysolipids; format: cell-based; details: 5 μM, 6 hr
# Procedure: Plating, Pretreatment and Treatment of HUVEC
# Procedures were followed as detailed above in “Procedure #1 for HeLa Cells” with the following exceptions:
# Cells were plated at 20,000 cells/well into 24-well plates. The next day, cells were serum-starved overnight in EBM medium (Clonetics) with 0.5% FBS, and then treated in EBM without FBS for 6 hr with the following lysolipids:
# Supematants were collected and IL-8 levels were deternined using ELISA as described previously.
# HL-60 cells = test: IL-8 ELISA on HL-60 cells; format: cell-based, human; details: 1, 6 or 24 hr, S1P or LPA up to 3 μM, TNF-α 10 ng/ml
# Procedure: Procedure for HL-60 Cells:
# Cells: HL-60 (promyelocytic, human) suspension cells
# Media: RPMI 1640 medium with 2 mM L-glutamine adjusted to contain 4.5 g/L glucose, 10 mM HEPES, and 1.0 mM sodium pyruvate+10% FBS
# 1) Cells were plated at a density of 0.25×10^6 cells/ml.
# 2) Cell pellcts were resuspended in 0.5% FBS media at a density of approximately 1×10^6 cells/ml.
# 1) Made up all required solutions in 0.5% FBS media (control).
# 2) 1.4 ml appropriate treatments were added to each well of a 6-well plate.
# 5) 100 μl cell suspension was added to each well.
# 7) After the specified time cell supematants were collected into 1.5 ml eppendorf tubes, spun down at 14000 rpm for 5 minutes and stored at −20° C.
# D. Refer to Procedure #1 For HeLa Cells (D).
# 293-EBNA cells = test: IL-8 production in untransfected 293-EBNA cells; format: cell-based
# [2] = system: 293-EBNA cells transfected with empty expression vector pcDNA3; test: NF-κB luciferase reporter in 293-EBNA cells, empty vector pcDNA3; format: cell-based; details: pcDNA3; 10 μM LPA; overnight
# Procedure: Monolayer Transient Transfection Protocol for 293-EBNA
# 2) 6.6 μg NF-κB-tk-p4Luc reporter DNA and 6.6 μg of pC3-redg4 (expressing rat EDG-4), or pcDNA3 DNA was diluted in 500 μl OPTI-MEM (Gibco; Cat. 31985-062)
# 2) After 6 hrs, media was removed and cells treated with compounds diluted in 0.5% FBS media (140 μl added to each well).
# 3) Cells were treated for 24 hrs.
# 1) Luclite kit (Packard; Cat. 6016911) was used for luciferase assay. All reagents were brought to room temperature before use.
# 7) After incubation, plates were counted in a 12-detector Packard Top Count on a program without dark delay.
# (§1) The above protocol for assay 1 was followed except for the following changes:
# (§2) 2) 3 μg NFκB-tk-p4Luc reporter DNA and 3 μg pC3-hedg1, pC3-hedg3, pC3-redg4, pC3-hedg5 or pcDNA3 DNA was diluted in 240 μl OPTI-MEM (Gibco; Cat. 31985-062)
# (§3) 2) SRE Cotransfection: 0.5 μg of 2XSREtk-p4Luc-zeo reporter DNA and 3.5 μg pcDNA3, EDG-1, EDG-3 (pC3-hE3HP2, different from the clone used in Assay 2 of Example 11) or the newly cloned human EDG-4 (pC3-hedg4#36); NF-κB Cotransfection: 2 μg 6XNFκBtk-p4Luc-zeo reporter DNA and 2.0 μg pcDNA3, EDG-1, EDG-3 (pC3-hE3HP2), or EDG-4 (pC3-hedg4#36). Expression plasmid and reporter plasmid DNA samples were combined and diluted in 750 μl of DMEM/F12 (serum free media) and 20 μl Plus Reagent (Lipofectamine Plus Kit, Life Technologies Cat. 10964-013), and incubated at room temperature for 15 min.
# (§4) 1) Media was removed and cells treated with compounds diluted in DMEM/F12 media.
# (§5) 2) The cells were treated for 6 hours.
# (§6) 293-EBNA cells were grown, lipofected in monolayer cultures, and pretreated as described above for Example 11, assay #1, except that NF-κB and AP-1 reporter-transfected cells were pretreated for 6 hr in medium containing 0.5% FBS, then treated overnight in the same medium with or without 10 μM LPA.
# EDG-5 [3] = biological target: T1, EDG-5 (Homo sapiens, UniProt Q9UBY5); test: NF-κB luciferase reporter in 293-EBNA cells, EDG-5; format: cell-based; details: 10 μM LPA, overnight
# T1 construct: expressed in transfected cells; host or cells: 293-EBNA
# T1 sequence (Q9UBY5 1-353): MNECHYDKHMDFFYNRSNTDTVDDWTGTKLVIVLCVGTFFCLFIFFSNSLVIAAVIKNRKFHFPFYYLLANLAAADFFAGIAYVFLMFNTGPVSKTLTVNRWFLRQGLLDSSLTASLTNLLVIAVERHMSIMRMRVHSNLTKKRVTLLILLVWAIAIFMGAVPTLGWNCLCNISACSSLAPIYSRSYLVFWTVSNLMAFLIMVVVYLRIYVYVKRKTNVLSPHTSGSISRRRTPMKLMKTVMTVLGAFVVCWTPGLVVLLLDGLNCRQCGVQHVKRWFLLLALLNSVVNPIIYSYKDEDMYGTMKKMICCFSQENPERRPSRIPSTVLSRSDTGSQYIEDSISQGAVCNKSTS
# Procedure: Transient Transfection Protocol for 293-EBNA
# as §1, §2
# 1) 0.01×10^6 cells were plated per well of a 96-well Blackview plate coated with polyD-lysine. No cells were plated in the outside wells of the 96-well plate.
# LPA, like S1P, is abundant in serun, but not plasma. Moreover, LPA is produced as a consequence of phospholipase A2 with or without the contribution of phospholipase D (depending on the phospholipid substrate). […] To date we have identified three subtypes of edg receptors that respond to LPA as an agonist. These are EDG-2, EDG-6 and EDG-5 (referred to also as LPA1, LPA2 and LPA3, respectively (Chun, J, Contos, J J A and Munroe, D G. 1998. A growing family of receptor genes for lysophosphatidic acid (LPA) and other lyso-phospholipids. Cell Biochem Biophys (in press)). The EDG-5 receptor is set out in co-pending U.S. application Ser. No. 08/997,803 to MLUNROE et al., incorporated herein by reference and the amino acid sequence and cDNA sequence for the EDG-6 receptor is set out in FIGS. 21 and 22, respectively. To determine whether these receptors might mediate inflammatory responses, each was cotransfected separately with SRE, NF-κB or AP-1 reporter genes. […]
# [4] = system: 293-EBNA cells transfected with empty expression vector pcDNA3; test: SRE luciferase reporter in 293-EBNA cells, empty vector pcDNA3; format: cell-based; details: 10 μM LPA
# Procedure: NE-κB activates gene expression by binding to specific DNA sequences found in the promoters of genes regulated by this inflammation-related transcription factor. […] The SRE reporter was identical to the NF-κB reporter, except that the NF-κB binding sites were replaced with 2 SRE sites. The new reporter was called 2XSREtk-p4Luc-zeo.
# The protocol described in Example 11 for Assay 1 was followed except for the following changes:
# as §3, §4, §5
# Transfection was accomplished using the Lipofectamine Plus kit (Life Technologies, Cat. 10964-013), using the manufacturer's recommended conditions.
# as §6
# EDG-2 [5] = biological target: T2, EDG-2 (Homo sapiens, UniProt Q92633); test: NF-κB reporter in 293-EBNA cells, EDG-2; format: cell-based; details: 10 μM LPA, overnight
# T2 construct: expressed in transfected cells; host or cells: 293-EBNA
# T2 sequence (Q92633 whole entry): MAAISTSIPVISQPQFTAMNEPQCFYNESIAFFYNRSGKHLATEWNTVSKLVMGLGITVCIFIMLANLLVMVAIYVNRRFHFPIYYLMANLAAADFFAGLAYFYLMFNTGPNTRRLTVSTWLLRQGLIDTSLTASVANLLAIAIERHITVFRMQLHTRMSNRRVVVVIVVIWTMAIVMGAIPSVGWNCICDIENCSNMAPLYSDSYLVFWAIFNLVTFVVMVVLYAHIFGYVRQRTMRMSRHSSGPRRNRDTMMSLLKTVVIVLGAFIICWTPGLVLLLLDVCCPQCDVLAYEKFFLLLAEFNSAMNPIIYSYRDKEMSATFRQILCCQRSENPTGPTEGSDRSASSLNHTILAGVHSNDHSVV
# Excerpt: (§7) LPA, like S1P, is abundant in serun, but not plasma. Moreover, LPA is produced as a consequence of phospholipase A2 with or without the contribution of phospholipase D (depending on the phospholipid substrate). […] To date we have identified three subtypes of edg receptors that respond to LPA as an agonist. These are EDG-2, EDG-6 and EDG-5 (referred to also as LPA1, LPA2 and LPA3, respectively (Chun, J, Contos, J J A and Munroe, D G. 1998. A growing family of receptor genes for lysophosphatidic acid (LPA) and other lyso-phospholipids. Cell Biochem Biophys (in press)). The EDG-5 receptor is set out in co-pending U.S. application Ser. No. 08/997,803 to MLUNROE et al., incorporated herein by reference and the amino acid sequence and cDNA sequence for the EDG-6 receptor is set out in FIGS. 21 and 22, respectively. To determine whether these receptors might mediate inflammatory responses, each was cotransfected separately with SRE, NF-κB or AP-1 reporter genes. […] This transcription factor, like NF-κB has been implicated in inflammatory and neoplastic signal transduction., though the gene targets of its action are largely distinct from those of NF-κB (Adcock IM. 1997. Transcription factors as activators of gene transcription: AP-1 and NF-κB. Monaldi Arch Chest Dis 52:178-186. Review). […]
# EDG-6 [6] = test: NF-κB reporter in 293-EBNA cells, EDG-6; format: cell-based, human; details: 10 μM LPA, overnight
# Excerpt: as §7
# Target sequence in this assay (Q9HBW0 1-340 limits assumed): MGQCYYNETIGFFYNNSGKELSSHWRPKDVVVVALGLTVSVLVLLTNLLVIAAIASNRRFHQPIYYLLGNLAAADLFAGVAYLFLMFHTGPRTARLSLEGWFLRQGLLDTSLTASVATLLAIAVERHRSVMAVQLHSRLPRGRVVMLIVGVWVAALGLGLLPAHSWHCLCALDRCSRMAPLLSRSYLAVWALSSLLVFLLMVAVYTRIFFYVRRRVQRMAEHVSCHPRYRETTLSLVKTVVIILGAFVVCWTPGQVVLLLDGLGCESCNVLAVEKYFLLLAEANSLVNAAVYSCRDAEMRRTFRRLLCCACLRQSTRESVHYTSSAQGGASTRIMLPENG
# EDG-2 [7] = biological target: T2, EDG-2; test: SRE reporter in 293-EBNA cells, EDG-2; format: cell-based; details: 10 μM LPA
# Excerpt: as §7
# EDG-5 [8] = biological target: T1, EDG-5; test: SRE reporter in 293-EBNA cells, EDG-5; format: cell-based; details: 10 μM LPA
# Excerpt: as §7
# EDG-6 [9] = test: SRE reporter in 293-EBNA cells, EDG-6; format: cell-based, human; details: 10 μM LPA
# Excerpt: as §7
# Target sequence in this assay (Q9HBW0 1-330 limits assumed): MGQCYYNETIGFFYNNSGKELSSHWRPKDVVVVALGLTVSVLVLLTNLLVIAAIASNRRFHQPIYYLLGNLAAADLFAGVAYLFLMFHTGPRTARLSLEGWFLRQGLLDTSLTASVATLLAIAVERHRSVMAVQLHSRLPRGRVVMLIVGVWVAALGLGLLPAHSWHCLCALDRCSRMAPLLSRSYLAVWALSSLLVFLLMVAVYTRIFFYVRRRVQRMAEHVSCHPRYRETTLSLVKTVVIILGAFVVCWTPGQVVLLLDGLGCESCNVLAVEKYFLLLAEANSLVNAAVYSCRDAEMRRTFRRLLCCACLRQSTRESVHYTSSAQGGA
# EDG-2 [10] = biological target: T2, EDG-2; test: AP-1 reporter in 293-EBNA cells, EDG-2; format: cell-based; details: 10 μM LPA
# Excerpt: as §7
# EDG-5 [11] = biological target: T1, EDG-5; test: AP-1 reporter in 293-EBNA cells, EDG-5; format: cell-based; details: 10 μM LPA
# Excerpt: as §7
# EDG-6 [12] = test: AP-1 reporter in 293-EBNA cells, EDG-6; format: cell-based, human; details: 10 μM LPA
# Excerpt: as §7
# Target sequence in this assay (Q9HBW0 1-340 limits assumed): as the sequence (Q9HBW0 1-340 limits assumed) above
# [13] = system: 293-EBNA cells transfected with empty expression vector pcDNA3; test: AP-1 reporter in 293-EBNA cells, empty vector pcDNA3; format: cell-based; details: 10 μM LPA
# Excerpt: as §7
substance,measurement,setting,value
lysophosphatidic acid [LPA],IL-8 levels increase over untreated controls,[1],3 fold
same,IL-8 release,HL-60 cells,no such release
same,IL-8 production,293-EBNA cells,no IL-8 production
same,NF-κB reporter response in control cells,[2],no response to LPA
same,Activation of the NF-κB reporter,EDG-5 [3],3-4 fold
same,Endogenous SRE reporter response vs untreated control cells,[4],about 1.5 fold
same,Activation of the NF-κB reporter,EDG-2 [5],3-4 fold
same,Activation of the NF-κB reporter,EDG-6 [6],3-4 fold
same,Induction of the SRE reporter,EDG-2 [7],greater than 2 fold
same,Induction of the SRE reporter,EDG-5 [8],greater than 2 fold
same,SRE reporter induction,EDG-6 [9],strongly induced both reporters
same,Induction of the AP-1 reporter,EDG-2 [10],greater than 2 fold
same,Induction of the AP-1 reporter,EDG-5 [11],greater than 2 fold
same,AP-1 reporter induction,EDG-6 [12],strongly induced both reporters
same,Endogenous AP-1 reporter response vs untreated control cells,[13],about 1.5 fold
